According to patent US6479487B1, “6, 9-disubstituted 2-[trans-(4-aminocyclohexyl)amino] purines” (Aventis Pharmaceuticals Inc., priority 1998, dated 2002):
Several values for one entry are separate records, joined by “and”; a condition that tells them apart may be missing. Equal values may be shown once. Where a name gives a salt, the structure may show the parent alone. Read-outs that look alike come from different tables or passages of the source.

Columns and labels:
DU145 = test: In vitro tumor cell proliferation, DU145; format: cell-based, human; details: many values given with an undefined *, read-out: In vitro Tumor Cell Proliferation (IC50, μM) Prostate DU145
Experimental: (§1) The proliferation of tumor cells was measured using a sulforhodamine B assay as described in Skehan, P., et al., J. Natl. Cancer Inst. […] Tumor cells were harvested with trypsin-EDTA, cells that excluded trypan blue were counted, added to 96-well plates and incubated overnight at 37° C. Drug was added to the wells following dilution in culture medium. Three days later, the medium was removed and replenished with medium containing fresh drug and incubated an additional 4 days. The cells were then fixed with 0.1 ml 10% trichloroacetic acid for 60 min at 4° C. The plates were rinsed five times with tap water, air-dried and stained for 30 min with 0.4% sulforhodamine B in 1% acetic acid and air-dried.
(§2) Alternatively, the CyQUANT cell proliferation assay was used to quantitate cell proliferation.
(§3) Alternatively, the CyQUANT cell proliferation assay was used to quantify tumor cell proliferation. Tumor cells were harvested with trypsin-EDTA, cells that excluded trypan blue were counted, added to 96-well plates and incubated overnight at 37° C. Drug was added to the wells following dilution in culture medium. Three days later the medium was removed and the plates frozen at −80° C. for at least 30 minutes.

PC-3 = test: In vitro tumor cell proliferation, PC-3; format: cell-based, human; details: many values given with an undefined *, read-out: In vitro Tumor Cell Proliferation (IC50, μM) Prostate PC-3
Experimental: as §1, §2, §3

DMS-114 = test: In vitro tumor cell proliferation, DMS-114; format: cell-based, human; details: many values given with an undefined *, read-out: In vitro Tumor Cell Proliferation (IC50, μM) Lung DMS-114
Experimental: DMS-1 14: human small cell lung carcinoma;
as §1, §2, §3

MDA-MB-231 = test: In vitro tumor cell proliferation, MDA-MB-231; format: cell-based, human; details: sulforhodamine B or CyQUANT assay, many values given with an undefined *, read-out: In vitro Tumor Cell Proliferation (IC50, μM) Breast MDA-MB-231
Experimental: as §1, §2, §3
MDA-MB-23 1 is a human breast adenocarcinoma, hormone-independent (HTB 26);

A549 = test: In vitro tumor cell proliferation, A549; format: cell-based, human; details: many values given with an undefined *, read-out: In vitro Tumor Cell Proliferation (IC50, μM) Lung A549
Experimental: as §1, §2, §3

Colo-205 = test: In vitro tumor cell proliferation, Colo-205; format: cell-based; details: values given with an undefined *, read-out: In vitro Tumor Cell Proliferation (IC50, μM) Colon Colo-205
Experimental: as §1, §2, §3

MDA-MB-435 = test: In vitro tumor cell proliferation, MDA-MB-435; format: cell-based; details: values given with an undefined *, read-out: In vitro Tumor Cell Proliferation (IC50, μM) Breast MDA-MB-435
Experimental: as §1, §2, §3

HT-29 = test: In vitro tumor cell proliferation, HT-29; format: cell-based, human; details: many values given with an undefined *, read-out: In vitro Tumor Cell Proliferation (IC50, μM) Colon HT-29
Experimental: as §1, §2, §3
HT-29 is a human colon adenocarcinoma, moderately well-differentiated grade II (HTB 38);

cdk2/cyclin E = molecular target: T1, cdk2/cyclin E (Homo sapiens, UniProt P24941); test: Cyclin-Dependent Kinase 2 Assay (cdk2/cyclin E, GST-Rb substrate); format: biochemical; details: recombinant cdk2/cyclin E, 10 μM ATP, 30 min at 30° C., several values in a cell = separate determinations, read-out: CDK-2 Inhibition IC50
T1 construct: made in house; host or cells: insect cells (baculovirus co-infection)
Experimental: Substrate: GST-Rb as described above for cdk4/cyclin D1
Assay conditions for cdk2/cyclin E were identical to those for cdk4/cyclin D1 including the substrate. The concentration of recombinant cdk2/cyclin E in the assay was 0.1 μg per 100 μl assay. Incubation was for 30 min at 30° C.

cdk4/cyclin D1 = molecular target: T2, cdk4/cyclin D1 (Homo sapiens, UniProt P11802); test: Cyclin-dependent Kinase 4 Assay (cdk4/cyclin D1, GST-Rb substrate); format: biochemical; details: cdk4/cyclin D1 insect cell lysate, 10 μM ATP, 30 min at 37° C., several values = separate determinations, read-out: CDK4 Inhibition IC50
T2 construct: made in house; host or cells: Sf9 insect cells (Bac-to-Bac baculovirus, pFastBac)
Experimental: The IC50 values for cdk4 inhibition were by the following method:
The transformed bacteria were grown overnight to saturation, then diluted in YT broth and incubated at 37° C. for 2 h. The protein was induced by incubation with 0.1 mM isopropylthioglycoside for 3 h. Following sedimentation by centrifugation, the cells were lysed by sonication in STE buffer ([…] NaCl, 10 mM Tris, pH 8.0, 1 mM EDTA) containing 10% sarkosyl. Particulate matter was removed by centrifugation and the lysate was incubated with glutathione-Sepharose at 4° C. The beads were washed with kinase buffer and then quantitation of Coomassie blue-stained proteins separated by SDS-PAGE was performed using a protein standard of known concentration.
The cDNA for human cyclin D1 was cloned by RT PCR using […] from MCF-7 cells. […] Bacmid DNA was used to transfect Sf9 insect cells to produce recombinant virus. Following plaque purification of the virus, the viral preparations were amplified until high titer stocks were acheived.
Lysates were prepared by lysis of Sf9 cells coinfected with cdk4 and cyclin D1 in 50 mM HEPES, pH 7.5, 10 mM MgCl2, 1 mM DTT, 0.1 mM phenylmethylsulfonyl fluoride, 5 μg/ml aprotinin, and 5 μg/ml leupeptin using a PARR bomb under 500 p.s.i nitrogen pressure for 5 min at 4° C. Insoluble material was sedimented at 10,000×g for 20 min at 4° C. Glycerol was added to the supernatant to 10% and stored at −80° C. in aliquots.
Pre-wet Millipore Multiscreen 96-well filter plates (0.65 μm Durapore filters) with 200 μl kinase buffer (50 mM HEPES, pH 7.5, 10 mM MgCl2, 1 mM EGTA). GST-Rb (0.5 μg) bound to glutathione-Sepharose beads is added in 50 μl per well and the solution removed by application of vacuum. […] Add 0.1 μg cdk4/cyclin D1 (insect cell lysate) to initiate assay. Incubate 30 min at 37° C. Terminate reaction by filtration on Millipore Vacuum Manifold. Wash four times with TNEN (20 mM Tris, pH 8.0, 100 mM Na Cl, 1 mM EDTA, 0.5% nonidet P-40). After drying the plates at room temperature, the filter plates were placed in adapter plates (Packard) and 40 μl of Microscint-O® (Packard) was added to each well. Top Seal A film was used to cover the plates before counting in a Top Count Scintillation Counter.

[1] = Homo sapiens, MDA-MB-231, MDA-MB-231

T2 sequence (P11802 whole entry): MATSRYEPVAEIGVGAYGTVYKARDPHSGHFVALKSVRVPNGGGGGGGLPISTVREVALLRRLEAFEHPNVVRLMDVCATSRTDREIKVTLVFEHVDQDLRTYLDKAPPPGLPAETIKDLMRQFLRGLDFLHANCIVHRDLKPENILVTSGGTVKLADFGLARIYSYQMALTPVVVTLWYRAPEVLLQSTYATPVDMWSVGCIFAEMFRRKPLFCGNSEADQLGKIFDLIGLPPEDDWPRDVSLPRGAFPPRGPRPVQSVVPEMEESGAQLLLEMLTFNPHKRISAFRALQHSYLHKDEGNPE
T2 sequence (P24385 whole entry partner): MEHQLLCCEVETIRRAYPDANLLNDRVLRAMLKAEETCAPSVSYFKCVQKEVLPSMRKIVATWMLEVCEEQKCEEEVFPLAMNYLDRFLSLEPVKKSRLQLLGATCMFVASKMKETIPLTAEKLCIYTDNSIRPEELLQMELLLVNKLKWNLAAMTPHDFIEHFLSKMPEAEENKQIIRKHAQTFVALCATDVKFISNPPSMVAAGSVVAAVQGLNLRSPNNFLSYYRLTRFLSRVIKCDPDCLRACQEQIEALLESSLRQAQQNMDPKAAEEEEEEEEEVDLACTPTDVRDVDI

Compound	IC50 (DU145; DU145)	IC50 (MDA-MB-231; MDA-MB-231)	IC50 (Colo-205; Colo-205)	IC50 (MDA-MB-435; MDA-MB-435)	IC50 (cdk2/cyclin E) [nM]	IC50 (cdk4/cyclin D1)	IC50 (DU145; DU145, trihydrochloride)	IC50 (PC-3; PC-3, trihydrochloride)	IC50 (DMS-114; DMS-114, trihydrochloride)	IC50 (MDA-MB-231; MDA-MB-231, trihydrochloride)	IC50 (A549; A549, trihydrochloride)	IC50 (Colo-205; Colo-205, trihydrochloride)	IC50 (MDA-MB-435; MDA-MB-435, trihydrochloride)	IC50 (HT-29; HT-29, trihydrochloride)	other results
COc1ccc(CN2CCC(Nc3nc(N[C@H]4CC[C@H](N)CC4)nc4c3ncn4C3CCCC3)CC2)cc1 [Example 39, 2-[Trans-(4-aminocyclohexyl)amino]-6-[4-(1-(4-methoxybenzyl))piperidinylamino]-9-cyclopentylpurine]	0.28 µM and 0.27 µM	0.18 µM	0.28 µM and 0.17 µM	0.23 µM and 0.35 µM											IC50 (PC-3; PC-3): 0.28 µM and 0.36 µM; IC50 (DMS-114; DMS-114): 0.32 µM and 0.22 µM; IC50 (A549; A549): 0.17 µM; IC50 (HT-29; HT-29): 0.32 µM and 0.22 µM
N[C@H]1CC[C@H](Nc2nc(NNc3c(Cl)cccc3Cl)c3ncn(C4CCCC4)c3n2)CC1 [Example 20, 2-[Trans-(4-aminocyclohexyl)amino]-6-[2,6-dichlorophenylhydrazino]-9-cyclopentylpurine dihydrochloride]					497										IC50 (DU145; Homo sapiens, DU-145, DU145): 6.5 µM; IC50 (PC-3; Homo sapiens, PC-3, PC-3): 7.9 µM; IC50 (DMS-114; Homo sapiens, DMS-114, DMS-114): 7.5 µM; IC50 (MDA-MB-231; [1]): 4.8 µM; IC50 (A549; A549, dihydrochloride): 4.8 µM; IC50 (A549; Homo sapiens, A549, A549): 5.6 µM; IC50 (MDA-MB-435; Homo sapiens, MDA-MB-435, MDA-MB-435): 11 µM; IC50 (HT-29; Homo sapiens, HT-29, HT-29): 7.6 µM
COc1cccc(OC)c1CNc1nc(N[C@H]2CC[C@H](N)CC2)nc2c1ncn2C1CCCC1 [Example 4, 2-[Trans-(4-aminocyclohexyl)amino]-6-[(2,6-dimethoxybenzyl)amino]-1-9-cyclopentylpurine dihydrochloride]					19400	46000 nM and > 100000 nM									
NC1CCC(Nc2nc(NC(c3ccc(Cl)cc3)C3CC3)c3ncn(C4CCCC4)c3n2)CC1 (racemic) [Example 24, (+/−)-2-[Trans-(4-aminocyclohexyl)amino]-6-[(α-cyclopropyl-4-chlorobenzyl)amino]-9-cyclopentylpurine dihydrochloride]					27100	4600 nM and 10000 nM									
COc1cc(CNc2nc(NC3CCC(N)CC3)nc3c2ncn3C2CCCC2)cc(OC)c1OC (stereo not shown) [Example 147-ae]	6.7 µM	6.6 µM	8.6 µM	11 µM	140										IC50 (DU145; Homo sapiens, DU-145, DU145): 12 µM; IC50 (DMS-114; Homo sapiens, DMS-114, DMS-114): 8.7 µM; IC50 (MDA-MB-231; [1]): 6.5 µM; IC50 (A549; Homo sapiens, A549, A549): 11 µM; IC50 (Colo-205; Homo sapiens, COLO 205, Colo-205): 11 µM; IC50 (HT-29; Homo sapiens, HT-29, HT-29): 10 µM
2-[Trans-(4-aminocyclohexyl)amino]-6-[4-[1-(2,5-difluorobenzyl)]piperidinylamino-9-cyclopentylpurine trihydrochloride [Example 147-f]							0.31 µM and 0.29 µM	0.36 µM and 0.45 µM	0.67 µM and 0.36 µM	0.41 µM and 0.38 µM	0.3 µM	0.31 µM and 0.25 µM	0.5 µM and 0.49 µM	0.4 µM and 0.34 µM	IC50 (cdk4/cyclin D1; trihydrochloride): 1100 nM and 2100 nM
COc1cccc(CN2CCC(Nc3nc(N[C@H]4CC[C@H](N)CC4)nc4c3ncn4C3CCCC3)CC2)c1 [Example 41, 2-[Trans-(4-aminocyclohexyl)amino]-6-[4-(1-(3-methoxybenzyl))piperidinylamino]-9-cyclopentylpurine]	0.29 µM and 0.23 µM	0.29 µM and 0.32 µM	0.25 µM and 0.21 µM	0.35 µM and 0.36 µM		750 nM and 1400 nM									IC50 (PC-3; PC-3): 0.27 µM and 0.42 µM; IC50 (DMS-114; DMS-114): 0.38 µM and 0.29 µM; IC50 (A549; A549): 0.19 µM; IC50 (HT-29; HT-29): 0.32 µM
COc1ccccc1CN1CCC(Nc2nc(N[C@H]3CC[C@H](N)CC3)nc3c2ncn3C2CCCC2)CC1 [Example 147-q, 2-[Trans-(4-aminocyclohexyl)amino]-6-[4-1-(2-methoxybenzyl)]piperidinylamino-9-cyclopentylpurine trihydrochloride]							0.29 µM and 0.32 µM	0.33 µM and 0.4 µM	0.4 µM and 0.21 µM	0.19 µM and 0.25 µM	0.18 µM and 0.19 µM	0.17 µM and 0.19 µM	0.36 µM and 0.33 µM	0.32 µM and 0.38 µM	IC50 (cdk4/cyclin D1; trihydrochloride): 690 nM and 1300 nM
Cc1cccc(CN2CCC(Nc3nc(N[C@H]4CC[C@H](N)CC4)nc4c3ncn4C3CCCC3)CC2)c1 [Example 147-i, 2-[Trans-(4-aminocyclohexyl)amino]-6-[4-[1-(3-methylbenzyl)]piperidinylamino]-9-cyclopentylpurine trihydrochloride]							0.23 µM	0.23 µM and 0.41 µM	0.39 µM and 0.26 µM	0.3 µM and 0.34 µM	0.17 µM and 0.18 µM	0.24 µM and 0.27 µM	0.3 µM and 0.45 µM	0.33 µM	
